Test results taken from publication PMC11793105, “A kalihinol analog disrupts apicoplast function and vesicular trafficking in P. falciparum malaria” (Science (New York, N.Y.), 2024).

Tests used:
[1] = tested on: erythrocytes; assay: Hemolytic activity assay (Giemsa smeared culture images); type: cell-based; conditions: concentrations up to 10 μM
Method: and two formamide derivatives.
2 and GB209-3 compounds tested after 48Hr and 72Hr drug incubation. […]

[2] = tested on: P. knowlesi YH1 rhesus erythrocyte infecting parasites; assay: P. knowlesi in vitro IC50 assay (flow cytometry), rhesus erythrocytes; type: cell-based; conditions: Plasmodium knowlesi, in Macaca mulatta
Method: Fig. 5. In vivo and broad-spectrum antimalarial efficacy of MED6-189. (A) The in vivo efficacy of MED6-189 was evaluated in a humanized mouse model infected with P. falciparum (blue) compared with untreated controls (black). […] The graphs illustrate the logarithmic growth of parasites (y axis) in response to varying drug concentrations (x axis). Error bars represent standard deviations from two independent experiments conducted in triplicate. The regression line is derived from a nonlinear regression analysis (variable slope with four parameters, least squares fit). (C) Proposed mode of action of MED6-189 in P. falciparum–infected erythrocytes. […]
(§1) Detailed information on materials and methods is available in the supplementary materials. […] P. knowlesi assays were quantitatively measured by flow cytometry using SYBR Green I and Mitrotracker Deep Red, as previously described ([84], [85]), on a Beckman Coulter CytoFLEX. […]
(§2) P. falciparum in vitro SYBR green fluorescence-based assays The anti-malarial activity of individual analogues were evaluated in-vitro against P. falciparum 3D7 (MRA-102, drug […]
(§3) green-I based fluorescence assay. Parasite growth rate and stages of development were determined via microscopy through Giemsa-stained smears of the cultures. […]

[3] = tested on: P. falciparum W2 (MRA-157, chloroquine resistant); assay: SYBR Green I growth inhibition assay, W2; type: cell-based, Plasmodium falciparum; conditions: early-ring stage, 72 h exposure
Method: Fig. 1. […] (B) SYBR Green–based dose response assays were conducted on early-ring stage parasites (6 hours after invasion). […] 3D7 WT (blue), NF54 (green), drug-resistant strains Dd2 (red), HB3 (black), W2 (gray), and D10-ACP-GFP (purple) lines (Sigmoidal, 4PL, X is concentration, n ≥ 3, nonlinear regression, CI: 95%). (C) Schematic diagram of the development of P. falciparum after two consecutive erythrocytic cycles. The time points at which MED6-189 was introduced are depicted in green. HPS, hours post synchronization. […] The images depict various developmental stages of the parasite’s intraerythrocytic life cycle. Bordered images represent time points when drug was first introduced (n = 3 biological replicates, P < 0.05).
as §1, §2, §3

[4] = tested on: HEK293; assay: Human cell line activity, HEK293; type: cell-based; conditions: HEK293, read-out: IC50 (µM) HEK293

[C-]#[N+][C@]1(C)CC[C@H]2[C@@H]([C@@H](C(C)C)CC[C@]2(C)[N+]#[C-])[C@H]1O [MED6-189]
hemolytic activity [1]: no hemolytic activity | IC50 [2]: 276 ± 22 nM | IC50 ([3]; Plasmodium falciparum, W2, 72 h): 27 ± 5 nM | IC50 [3]: 26.7 nM | IC50 [4]: 28 µM
